The subject of one assay is NCI-H292. Briefly: Antiproliferative activity against human NCI-H292 cells. In kind it is functional, cell-based.
The target of assay [1] is DNA (cytosine-5)-methyltransferase 1 (Homo sapiens) (UniProt P26358). The assay is described as follows: Inhibition of DNMT1 in human NCI-H292 cells at 50 uM after 48 hrs by Western blot analysis relative to control. In kind it is cell-based.
For assay [2] the target is unchanged. Briefly: Inhibition of DNMT1 in human NCI-H292 cells at 100 uM after 48 hrs by Western blot analysis relative to control. In kind it is cell-based.

pIC50: −log10 of the molar value. Some results are limits rather than exact numbers.

DNA (cytosine-5)-methyltransferase 1 (Homo sapiens), sequence (P26358 whole entry): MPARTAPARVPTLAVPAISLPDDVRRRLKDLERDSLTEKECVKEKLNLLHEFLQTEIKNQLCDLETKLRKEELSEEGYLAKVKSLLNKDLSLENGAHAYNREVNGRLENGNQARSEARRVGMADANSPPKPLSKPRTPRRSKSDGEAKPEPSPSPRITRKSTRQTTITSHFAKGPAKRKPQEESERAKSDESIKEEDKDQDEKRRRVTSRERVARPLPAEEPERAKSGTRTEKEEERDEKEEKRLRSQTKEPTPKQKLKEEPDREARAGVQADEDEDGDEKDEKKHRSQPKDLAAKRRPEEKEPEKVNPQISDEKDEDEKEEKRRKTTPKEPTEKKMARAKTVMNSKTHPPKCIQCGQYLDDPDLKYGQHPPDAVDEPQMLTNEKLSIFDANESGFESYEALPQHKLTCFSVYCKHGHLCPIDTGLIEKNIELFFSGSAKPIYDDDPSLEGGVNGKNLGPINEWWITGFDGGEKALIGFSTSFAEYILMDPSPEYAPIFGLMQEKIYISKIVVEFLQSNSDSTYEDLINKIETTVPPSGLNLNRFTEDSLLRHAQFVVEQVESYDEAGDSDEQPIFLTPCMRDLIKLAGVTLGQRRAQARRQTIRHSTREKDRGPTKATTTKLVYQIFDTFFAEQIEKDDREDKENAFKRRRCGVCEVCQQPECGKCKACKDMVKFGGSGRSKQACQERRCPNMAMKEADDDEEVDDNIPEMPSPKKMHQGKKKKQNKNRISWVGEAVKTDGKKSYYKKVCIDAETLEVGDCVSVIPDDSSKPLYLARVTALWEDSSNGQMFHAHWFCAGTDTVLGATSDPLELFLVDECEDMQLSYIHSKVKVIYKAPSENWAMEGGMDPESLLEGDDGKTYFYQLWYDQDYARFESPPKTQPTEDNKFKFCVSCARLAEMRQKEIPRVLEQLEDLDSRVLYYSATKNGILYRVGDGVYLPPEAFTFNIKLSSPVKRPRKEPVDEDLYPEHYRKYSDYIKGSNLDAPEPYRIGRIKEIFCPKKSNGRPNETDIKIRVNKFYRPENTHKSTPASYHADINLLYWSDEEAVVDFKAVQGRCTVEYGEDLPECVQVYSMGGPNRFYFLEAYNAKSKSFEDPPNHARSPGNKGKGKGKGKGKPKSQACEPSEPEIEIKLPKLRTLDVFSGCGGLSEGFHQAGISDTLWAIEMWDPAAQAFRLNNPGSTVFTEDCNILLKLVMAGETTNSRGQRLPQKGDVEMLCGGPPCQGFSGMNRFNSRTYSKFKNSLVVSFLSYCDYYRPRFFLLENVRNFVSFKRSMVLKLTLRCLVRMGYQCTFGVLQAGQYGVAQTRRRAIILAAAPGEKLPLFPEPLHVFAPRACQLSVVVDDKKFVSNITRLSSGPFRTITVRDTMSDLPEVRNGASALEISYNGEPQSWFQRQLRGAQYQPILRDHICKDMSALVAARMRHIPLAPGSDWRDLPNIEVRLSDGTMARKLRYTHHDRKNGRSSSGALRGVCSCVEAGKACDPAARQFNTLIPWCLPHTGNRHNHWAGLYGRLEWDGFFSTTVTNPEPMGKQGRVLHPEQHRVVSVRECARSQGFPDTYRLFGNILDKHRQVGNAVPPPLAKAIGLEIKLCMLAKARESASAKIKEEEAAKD

In the assay with NCI-H292, `O=C1N/C(=C\c2ccc(Cl)cc2)C(=O)N1c1ccc(Cl)cc1` gave a pIC50 of 4.45. Besides, in assay [1], the fold change (FC) stood at 0.99.

As for `O=C1N/C(=C\c2ccc(O)cc2)C(=O)N1c1cccc(I)c1`, the negative-log IC50 (pIC50) in the assay with NCI-H292 is < 3.70.

On to `Cc1cccc(N2C(=O)N/C(=C\c3ccc(O)cc3)C2=O)c1`, for which the pIC50 in the assay on NCI-H292 is < 3.70.

With `O=C(c1cccc(N2C(=O)N/C(=C\c3ccc(O)cc3)C2=O)c1)N1CCCC1`, in the assay with NCI-H292, the pIC50 was < 3.70.

Consider `O=C(NCC1CCCCC1)c1ccc(N2C(=O)N/C(=C\c3ccc(O)cc3)C2=O)cc1`, for which the negative-log IC50 (pIC50) in the assay with NCI-H292 was < 3.70.

As to `CCOC(=O)c1ccc(N2C(=O)N/C(=C\c3ccc(O)cc3)C2=O)cc1`, in the assay with NCI-H292, the negative-log IC50 (pIC50) was < 3.70.

In the assay on NCI-H292, `O=C(Nc1ccc(Cl)cc1)c1cccc(N2C(=O)N/C(=C\c3ccc(O)cc3)C2=O)c1` showed a negative-log IC50 (pIC50) of 3.90.

For `O=C1N/C(=C\c2ccc(O)cc2)C(=O)N1c1ccc(Cl)cc1`, in assay [2], the fold change (FC) turned out to be 1.08. The negative logarithm of the IC50 (pIC50) in the assay with NCI-H292 is 4.38.

With `COc1ccc(/C=C2\NC(=O)N(c3ccc(Cl)cc3)C2=O)cc1`, in the assay with NCI-H292, the pIC50 is 4.49. Besides, the fold change (FC) in assay [1] worked out at 1.19.

Turning to `O=C(NCc1ccccc1)c1cccc(N2C(=O)N/C(=C\c3ccc(O)cc3)C2=O)c1`, the pIC50 with NCI-H292 was 4.63. Also, the fold change (FC) in assay [1] was 0.27.

For `O=C(c1ccc(N2C(=O)N/C(=C\c3ccc(O)cc3)C2=O)cc1)N1CCCC1`, the pIC50 in the assay on NCI-H292 is < 3.70.

On to `O=C1/C(=C/c2ccc(O)cc2)NC(=S)N1c1ccc(Cl)cc1`, for which, in the assay on NCI-H292, the pIC50 was 4.55.

With `Cc1ccc(N2C(=O)N/C(=C\c3ccc(O)cc3)C2=O)cc1`, in the assay on NCI-H292, the negative logarithm of the IC50 (pIC50) was 4.55. For the same compound, in assay [1], the fold change (FC) is 0.32.

Consider `O=C(Nc1ccc(Cl)cc1)c1ccc(N2C(=O)N/C(=C\c3ccc(O)cc3)C2=O)cc1`, for which, in the assay on NCI-H292, the negative-log IC50 (pIC50) is < 3.70.

`O=C(NCC1CCCCC1)c1cccc(N2C(=O)N/C(=C\c3ccc(O)cc3)C2=O)c1` gave a pIC50 in the assay with NCI-H292 of 4.75. Besides, the fold change (FC) in assay [1] turned out to be 0.25.

Regarding `O=C1N/C(=C\c2ccc(O)cc2)C(=O)N1c1cccc(Br)c1`, in the assay on NCI-H292, the pIC50 is < 3.70.

Take `COc1cccc(N2C(=O)N/C(=C\c3ccc(O)cc3)C2=O)c1`: the negative-log IC50 (pIC50) with NCI-H292 is < 3.70.

As to `COc1ccc(N2C(=O)N/C(=C\c3ccc(O)cc3)C2=O)cc1`, the pIC50 in the assay with NCI-H292 is < 3.70.

Consider `O=C1/C(=C/c2ccc(O)cc2)NC(=S)N1c1ccc(I)cc1`, for which, in the assay on NCI-H292, the negative logarithm of the IC50 (pIC50) was 4.71.

In the assay on NCI-H292, `O=C1N/C(=C\c2ccc(O)cc2)C(=O)N1c1ccc(I)cc1` gave a pIC50 of 4.59. Further, in assay [1], the fold change (FC) amounted to 0.01.

In the case of `O=C1N/C(=C\c2ccc3ccccc3c2)C(=O)N1c1ccc(Cl)cc1`, the pIC50 with NCI-H292 was < 3.70.

Take `O=C(NCc1ccccc1)c1ccc(N2C(=O)N/C(=C\c3ccc(O)cc3)C2=O)cc1`: in the assay with NCI-H292, the pIC50 is < 3.70.

As to `COc1cc(/C=C2\NC(=O)N(c3ccc(Cl)cc3)C2=O)cc(OC)c1OC`, the negative-log IC50 (pIC50) in the assay on NCI-H292 is < 3.70.

`O=C1N/C(=C\c2ccc(O)cc2)C(=O)N1c1ccc(Br)cc1` gave a pIC50 in the assay on NCI-H292 of 4.16.

In the case of `O=C(O)c1cccc(N2C(=O)N/C(=C\c3ccc(O)cc3)C2=O)c1`, the pIC50 in the assay with NCI-H292 was < 3.70.

`O=C1N/C(=C\c2ccc(Br)cc2)C(=O)N1c1ccc(Cl)cc1` had a pIC50 in the assay on NCI-H292 of 4.33.

Regarding `O=C(O)c1ccc(N2C(=O)N/C(=C\c3ccc(O)cc3)C2=O)cc1`, the pIC50 with NCI-H292 was < 3.70.

The values are drawn from ChEMBL document CHEMBL3763036, “Structural optimization of non-nucleoside DNA methyltransferase inhibitor as anti-cancer agent” (Bioorg Med Chem Lett, 2016).
